Test results reported in patent US11261186B2, “Biaryl derivative as GPR120 agonist” (LG CHEM, LTD., priority 2014, dated 2022).
pEC50: −log10 of the molar value.

target: T1, hGPR120 (Homo sapiens, UniProt Q5NUL3); assay: Measurement of Activity of GPR120 Agonist (Cell-Based Assay), Calcium 5 dye fluorescence; conditions: CHO-K1 cells expressing Ga16 and hGPR120
T1 construct: expressed in transfected cells; host or cells: CHO-K1
T1 sequence (Q5NUL3 1-361): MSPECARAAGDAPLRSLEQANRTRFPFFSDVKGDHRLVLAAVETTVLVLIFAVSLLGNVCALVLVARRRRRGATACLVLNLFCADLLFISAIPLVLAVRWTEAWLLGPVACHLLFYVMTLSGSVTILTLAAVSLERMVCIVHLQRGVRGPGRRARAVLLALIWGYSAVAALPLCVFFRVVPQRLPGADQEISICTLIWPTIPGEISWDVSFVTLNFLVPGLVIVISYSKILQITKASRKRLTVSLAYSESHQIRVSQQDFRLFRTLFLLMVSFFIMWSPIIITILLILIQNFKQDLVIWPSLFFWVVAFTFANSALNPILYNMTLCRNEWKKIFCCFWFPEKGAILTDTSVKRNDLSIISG
Method in brief: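 CHO-K1 cells co-expressing Gα16 and hGPR120, plated 18 h, loaded 1 h at 37°C with Calcium 5 dye. Serially diluted agonists added at 0.5% DMSO final; fluorescence read at Ex 485/Em 525 nm and expressed as relative % of DMSO-only signal.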

Row | pEC50 | Structure (SMILES)
1 | > 6.70 | CC(C)Oc1cccc(-c2cc(F)c(N3CCC(CC(=O)O)C3)c(F)c2)n1 (centres unmarked) [Example 563, {1-[2,6-difluoro-4-(6-isopropoxy-pyridin-2-yl)-phenyl]-pyrrolidin-3-yl}-acetic acid]
2 | 5.70 to 6.70 | O=C(O)CC1CCN(c2c(F)cc(-c3cccc(OCC4CCC4)n3)cc2F)C1 (centres unmarked) [Example 564, {1-[4-(6-cyclobutylmethoxy-pyridin-2-yl)-2,6-difluoro-phenyl]-pyrrolidin-3-yl}-acetic acid]
3 | > 6.70 | O=C(O)CCCOc1c(F)cc(-c2ccc(COCC3CC3)s2)cc1F [Example 565, 4-[4-(5-cyclopropylmethoxymethyl-thiophen-2-yl)-2,6-difluoro-phenoxy]-butanoic acid]
4 | > 6.70 | O=C(O)CCCOc1c(F)cc(-c2csc(COCC3CC3)c2)cc1F [Example 566, 4-[4-(5-cyclopropylmethoxymethyl-thiophen-3-yl)-2,6-difluoro-phenoxy]-butanoic acid]
5 | 5.70 to 6.70 | O=C(O)CC1CCN(c2c(F)cc(-c3csc(COCC4CC4)c3)cc2F)CC1 [Example 567, {1-[4-(5-cyclopropylmethoxymethyl-thiophen-3-yl)-2,6-difluoro-phenyl]-piperidin-4-yl}-acetic acid]
6 | 4.70 to 5.70 | Cc1nc(COCC2CC2)c(-c2cc(F)c(OCCCC(=O)O)c(F)c2)s1 [Example 568, 4-[4-(4-cyclopropylmethoxymethyl-2-methyl-thiazol-5-yl)-2,6-difluoro-phenoxy]-butanoic acid]
7 | 4.70 to 5.70 | O=C(O)CC1CCN(c2c(F)cc(-c3ccc(COCC4CC4)s3)cc2F)CC1 [Example 569, {1-[4-(5-cyclomethoxymethyl-thiophen-2-yl)-2,6-difluoro-phenyl]-piperidin-4-yl}-acetic acid]
8 | 5.70 to 6.70 | Cc1nc(COCC2CC2)c(-c2cc(F)c(N3CCC(CC(=O)O)CC3)c(F)c2)s1 [Example 570, {1-[4-(4-cyclopropylmethoxymethyl-2-methyl-thiazol-5-yl)-2,6-difluoro-phenyl]-piperidin-4-yl}-acetic acid]
9 | > 6.70 | O=C(O)CCCOc1c(F)cc(-c2sccc2COCC2CC2)cc1F [Example 574, 4-[4-(3-cyclopropylmethoxymethyl-thiophen-2-yl)-2,6-difluoro-phenoxy]-butanoic acid]
10 | > 6.70 | Cc1cc(OCC2CC2)nc(-c2cc(F)c(N3CCC(CC(=O)O)C3)c(F)c2)n1 (centres unmarked) [Example 576, {1-[4-(4-cyclopropylmethoxy-6-methyl-pyrimidin-2-yl)-2,6-difluoro-phenyl]-pyrrolidin-3-yl}-acetic acid]
11 | > 6.70 | O=C(O)CC1CCN(c2c(F)cc(-c3cncc(OCC4CC4)n3)cc2F)C1 (centres unmarked) [Example 580, {1-[4-(6-cyclopropylmethoxy-pyrazin-2-yl)-2,6-difluoro-phenyl]-pyrrolidin-3-yl}-acetic acid]
12 | > 6.70 | O=C(O)CC1CCN(c2c(F)cc(-c3nccc(OCC4CC4)n3)cc2F)C1 (centres unmarked) [Example 581, {1-[4-(4-cyclopropylmethoxy-pyrimidin-2-yl)-2,6-difluoro-phenyl]-pyrrolidin-3-yl}-acetic acid]
13 | 5.70 to 6.70 | O=C(O)CC1CCN(c2c(F)cc(-c3csc(OCC4CC4)n3)cc2F)C1 (centres unmarked) [Example 583, {1-[4-(2-cyclopropylmethoxy-thiazol-4-yl)-2,6-difluoro-phenyl]-pyrrolidin-3-yl}-acetic acid]
14 | 5.70 to 6.70 | COc1cncc(-c2cc(F)c(N3CCC(CC(=O)O)C3)c(F)c2)n1 (centres unmarked) [Example 584, {1-[2,6-difluoro-4-(6-methoxy-pyrazin-2-yl)-phenyl]-pyrrolidin-3-yl}-acetic acid]
15 | > 6.70 | CCOc1cncc(-c2cc(F)c(N3CCC(CC(=O)O)C3)c(F)c2)n1 (centres unmarked) [Example 585, {1-[4-(6-ethoxy-pyrazin-2-yl)-2,6-difluoro-phenyl]-pyrrolidin-3-yl}-acetic acid]
16 | > 6.70 | CC(C)Oc1cncc(-c2cc(F)c(N3CCC(CC(=O)O)C3)c(F)c2)n1 (centres unmarked) [Example 586, {1-[2,6-difluoro-4-(6-isopropoxy-pyrazin-2-yl)-phenyl]-pyrrolidin-3-yl}-acetic acid]
17 | 5.70 to 6.70 | Cc1cc(OC(C)C)nc(-c2cc(F)c(N3CCC(CC(=O)O)C3)c(F)c2)n1 (centres unmarked) [Example 587, {1-[2,6-difluoro-4-(4-isopropoxy-6-methyl-pyrimidin-2-yl)-phenyl]-pyrrolidin-3-yl}-acetic acid]
18 | > 6.70 | CCCOc1cc(C)nc(-c2cc(F)c(N3CCC(CC(=O)O)C3)c(F)c2)n1 (centres unmarked) [Example 589, {1-[2,6-difluoro-4-(4-methyl-6-propoxy-pyrimidin-2-yl)-phenyl]-pyrrolidin-3-yl}-acetic acid]

Further lines, the compound ahead of its results:

Row | Structure (SMILES) | pEC50
19 | O=C(O)C1CC1COc1c(F)cc(-c2cncc(OC3CCC3)n2)cc1F (centres unmarked) [Example 550, 2-[4-(6-cyclobutoxy-pyrazin-2-yl)-2,6-difluoro-phenoxymethyl]-cyclopropanecarboxylic acid] | > 6.70
20 | O=C(O)C1CC1COc1c(F)cc(-c2csc(OC3CCC3)n2)cc1F (centres unmarked) [Example 551, 2-[4-(2-cyclobutoxy-thiazol-4-yl)-2,6-difluoro-phenoxymethyl]-cyclopropanecarboxylic acid] | 5.70 to 6.70
21 | O=C(O)C1CC1COc1c(F)cc(-c2cccc(OCC3CC3)n2)cc1Cl (centres unmarked) [Example 552, 2-[2-chloro-4-(6-cyclopropylmethoxy-pyridin-2-yl)-6-fluoro-phenoxymethyl]-cyclopropanecarboxylic acid] | 5.70 to 6.70
22 | Cc1cc(OC2CCC2)nc(-c2cc(F)c(OCC3CC3C(=O)O)c(Cl)c2)n1 (centres unmarked) [Example 553, 2-[2-chloro-4-(4-cyclobutoxy-6-methyl-pyrimidin-2-yl)-6-fluoro-phenoxymethyl]-cyclopropanecarboxylic acid] | 5.70 to 6.70
23 | O=C(O)C1CC1COc1c(F)cc(-c2cccc(OC3CCC3)n2)cc1Cl (centres unmarked) [Example 554, 2-[2-chloro-4-(6-cyclobutoxy-pyridin-2-yl)-6-fluoro-phenoxymethyl]-cyclopropanecarboxylic acid] | > 6.70
24 | O=C(O)CCC1CCc2cc(-c3cccc(OC4CCC4)c3)ccc2O1 (centres unmarked) [Example 555, 3-[6-(3-cyclobutoxy-phenyl)-chroman-2-yl]-propionic acid] | > 6.70
25 | CCCOc1cccc(-c2ccc3c(c2)CCC(CCC(=O)O)O3)n1 (centres unmarked) [Example 556, 3-[6-(6-propoxy-pyridin-2-yl)-chroman-2-yl]-propionic acid] | > 6.70
26 | O=C(O)CCCOc1c(F)cc(-c2ccc3cc[nH]c3c2)cc1F [Example 557, 4-[2,6-difluoro-4-(1H-indol-6-yl)-phenoxy]-butanoic acid] | 4.70 to 5.70
27 | CC(C)n1ccc2ccc(-c3cc(F)c(OCCCC(=O)O)c(F)c3)cc21 [Example 558, 4-[2,6-difluoro-4-(1-isopropyl-1H-indol-6-yl)-phenoxy]-butanoic acid] | > 6.70
28 | O=C(O)CCCOc1c(F)cc(-c2ccc3ccn(CC4CC4)c3c2)cc1F [Example 559, 4-[4-(1-cyclopropylmethyl-1H-indol-6-yl)-2,6-difluoro-phenoxy]-butanoic acid] | > 6.70
29 | O=C(O)CC1CCN(c2c(F)cc(-c3cccc(OCC4CC4)n3)cc2F)C1 (centres unmarked) [Example 560, {1-[4-(6-cyclopropylmethoxy-pyridin-2-yl)-2,6-difluoro-phenyl]-pyrrolidin-3-yl}-acetic acid] | > 6.70
30 | O=C(O)CC1CCN(c2c(F)cc(-c3cccc(OC4CCC4)n3)cc2F)C1 (centres unmarked) [Example 561, {1-[4-(6-cyclobutoxy-pyridin-2-yl)-2,6-difluoro-phenyl]-pyrrolidin-3-yl}-acetic acid] | > 6.70
31 | CC(C)n1cc(Cl)c2ccc(-c3cc(F)c(OCCCC(=O)O)c(F)c3)cc21 [Example 562, 4-[4-(3-chloro-1-isopropyl-1H-indol-6-yl)-2,6-difluoro-phenoxy]-butanoic acid] | 4.70 to 5.70
32 | CC(C)COCc1cc(-c2cc(F)c(OCCCC(=O)O)c(F)c2)cs1 [Example 572, 4-[2,6-difluoro-4-(5-isobutoxymethyl-thiophen-3-yl)-phenoxy]-butanoic acid] | > 6.70
33 | O=C(O)CCCOc1c(F)cc(-c2csc(COC3CCC3)c2)cc1F [Example 573, 4-[4-(5-cyclobutoxymethyl-thiophen-3-yl)-2,6-difluoro-phenoxy]-butanoic acid] | > 6.70
34 | Cc1cc(OC2CCC2)nc(-c2cc(F)c(N3CCC(CC(=O)O)C3)c(F)c2)n1 (centres unmarked) [Example 575, {1-[4-(4-cyclobutoxy-6-methyl-pyrimidin-2-yl)-2,6-difluoro-phenyl]-pyrrolidin-3-yl}-acetic acid] | 5.70 to 6.70
35 | Cc1cc(OC2CCC2)nc(-c2cc(F)c(N3CCC(CC(=O)O)C3)c(F)c2)c1 (centres unmarked) [Example 577, {1-[4-(6-cyclobutoxy-4-methyl-pyridin-2-yl)-2,6-difluoro-phenyl]-pyrrolidin-3-yl}-acetic acid] | 5.70 to 6.70
36 | O=C(O)CC1CCN(c2c(F)cc(-c3cncc(OC4CCC4)n3)cc2F)C1 (centres unmarked) [Example 578, {1-[4-(6-cyclobutoxy-pyrazin-2-yl)-2,6-difluoro-phenyl]-pyrrolidin-3-yll}-acetic acid] | > 6.70
37 | O=C(O)CC1CCN(c2c(F)cc(-c3nccc(OC4CCC4)n3)cc2F)C1 (centres unmarked) [Example 579, {1-[4-(4-cyclobutoxy-pyrimidin-2-yl)-2,6-difluoro-phenyl]-pyrrolidin-3-yl}-acetic acid] | > 6.70
38 | O=C(O)CC1CCN(c2c(F)cc(-c3csc(OC4CCC4)n3)cc2F)C1 (centres unmarked) [Example 582, {1-[4-(2-cyclobutoxy-thiazol-4-yl)-2,6-difluoro-phenyl]-pyrrolidin-3-yll}-acetic acid] | 5.70 to 6.70
